This assay deals with T1, Lysozyme (Gallus gallus, UniProt P00698).
T1 construct: gene LYZ
The experiment in a line: X-ray crystallography of soaked crystals ([…] data sets), ligand occupancy vs soak time; Kd^cryst from fitted Omax. It is filed as binding.

The structures appear in SMILES notation.

As a reminder, the Kd is a measure of binding affinity in units of concentration. The low end stands for tighter binding, the high end for weaker binding.

T1 sequence (P00698 19-147): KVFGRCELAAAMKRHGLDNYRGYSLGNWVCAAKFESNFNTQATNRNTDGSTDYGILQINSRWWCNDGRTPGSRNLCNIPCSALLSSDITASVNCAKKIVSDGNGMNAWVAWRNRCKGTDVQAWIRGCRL

`CC(=O)N[C@H]1C(O)O[C@H](CO)[C@@H](O)[C@@H]1O` (stereo partly shown) [NAG, N-acetyl glucosamine]: binding was put at a Kd of 5.4 mM.

(Values after article PMC4079544, “A Linear Relationship between Crystal Size and Fragment Binding Time Observed Crystallographically: Implications for Fragment Library Screening Using Acoustic Droplet Ejection” (PLoS ONE, 2014).)
